Read-outs that look alike come from different tables or passages of the source.
How the values were obtained:
[1] = system: tomato late blight fungus (Phytophthora infestans); format: in vivo; conditions: single chemical
[2] = system: wheat brown rust fungus (Puccinia recondita); assay: Effect of combined application for controlling wheat brown rust (Test Example 6); format: in vivo; conditions: single chemical
[3] = system: wheat powdery mildew fungus (Erysiphe graminis f. sp. tritici); assay: Effect of combined application for controlling wheat powdery mildew (Test Example 5); format: in vivo; conditions: single chemical
[4] = system: wheat powdery mildew fungus (Erysiphe graminis); assay: Preventive activity on wheat powdery mildew (Test Example 1); format: in vivo; conditions: foliar application on wheat, wettable powder
[5] = system: wheat brown rust fungus (Puccinia recondita); assay: Preventive activity on wheat brown rust (Test Example 2); format: in vivo; conditions: 10 ppm, foliar application on wheat, wettable powder
[6] = system: cucumber gray mold fungus (Botrytis cinerea); assay: Effect of combined application for controlling cucumber gray mold (Test Example 8); format: in vivo; conditions: single chemical, from diameter of lesion
CD rats (female) = assay: Oral acute toxicity test using rats (Test Example 3); conditions: for LC50 value: CD rats (female), single oral administration, suspended in tragacanth gum aqueous solution
Method: Each of the compound No. 2 and its racemate No. 2r was suspended in tragacanth gum aqueous solution and applied to CD rats (female) by single oral administration in a dosage of 300, 600, 1,200, 2,500 or 5,000 mg/kg to obtain its LC50 value.

CCCN(CCOc1c(Cl)cc(Cl)cc1Cl)C(=O)n1ccnc1 [Known compound d, N-propyl-N-[2-(2,4,6-trichlorophenoxy)ethyl]imidazole-1-carboxamide]
Preventive value (%) ([1]; 0.2 ppm): 62% | Preventive value (%) ([1]; 1 ppm): 79% | Preventive value (%) ([1]; 5 ppm): 95% | Preventive value (%) ([2]; 2.4 ppm): 0% | Preventive value (%) ([2]; 12 ppm): 19%

CC1(C)CCC(Cc2ccc(Cl)cc2)C1(O)Cn1cncn1 (racemic) [Known compound a, (1RS,5RS;1RS,5SR)-5-(4-chlorobenzyl)-2,2-dimethyl-1-(1H-1,2,4-triazol-1-ylmethyl)cyclopentanol]
Preventive value (%) ([3]; 0.2 ppm): 35% | Preventive value (%) ([3]; 1 ppm): 80% | Preventive value (%) ([2]; 0.2 ppm): 25% | Preventive value (%) ([2]; 1 ppm): 81%

CNC(=O)C(=NOC)c1ccccc1C=NO[C@H](C)c1cccc(C(F)(F)F)c1 (single isomer, unassigned) [compound 1]
Preventive value (%) ([4]; 2.0 ppm): 6% | Preventive value (%) ([4]; 4.0 ppm): 51% | Preventive value [5]: 0

CC(Cc1ccc(C(C)(C)C)cc1)CN1C[C@@H](C)O[C@@H](C)C1 (mixture of isomers) [Known compound c, (±)-cis-4-[3-(4-tert-butylphenyl)-2-methylpropyl]-2,6-dimethylmorpholine]
Preventive value (%) ([3]; 2.4 ppm): 18% | Preventive value (%) ([3]; 12 ppm): 50% | Preventive value (%) ([2]; 2.4 ppm): 0% | Preventive value (%) ([2]; 12 ppm): 0%

O=[N+]([O-])c1cc(C(F)(F)F)c(Cl)c([N+](=O)[O-])c1Nc1ncc(C(F)(F)F)cc1Cl [Known compound f]
Preventive value (%) ([6]; 0.2 ppm): 52% | Preventive value (%) ([6]; 1 ppm): 68% | Preventive value (%) ([6]; 5 ppm): 98%

CNC(=O)C(=NOC)c1ccccc1C=NO[C@@H](C)c1cccc(C(F)(F)F)c1 (single isomer, unassigned) [compound 2]
Preventive value (%) ([4]; 2.0 ppm): 97% | Preventive value (%) ([4]; 4.0 ppm): 100% | Preventive value (%) ([1]; 0.4 ppm): 23% | Preventive value (%) ([1]; 2 ppm): 73% | Preventive value (%) ([1]; 10 ppm): 95% | LC50 value (CD rats (female)): ≥ 5,000 mg/kg | Preventive value (%) ([6]; 0.4 ppm): 13% | Preventive value (%) ([6]; 2 ppm): 53% | Preventive value (%) ([6]; 10 ppm): 94% | Preventive value (%) ([3]; 0.2 ppm): 25% | Preventive value (%) ([3]; 1 ppm): 87% | Preventive value [5]: 99 | Preventive value (%) ([2]; 0.2 ppm): 2% | Preventive value (%) ([2]; 1 ppm): 48%

CC(C)(C)C(O)(CCc1ccc(Cl)cc1)Cn1cncn1 (racemic) [Known compound b, (RS)-1-p-chlorophenyl-4,4-dimethyl-3-(1H-1,2,4-triazol-1-ylmethyl)pentan-3-ol]
Preventive value (%) ([3]; 0.2 ppm): 23% | Preventive value (%) ([3]; 1 ppm): 65% | Preventive value (%) ([2]; 0.2 ppm): 22% | Preventive value (%) ([2]; 1 ppm): 75%

CNC(=O)C(=NOC)c1ccccc1C=NOC(C)c1cccc(C(F)(F)F)c1 (racemic) [2r, N-methyl-2-[2-{1-(3-trifluoromethylphenyl)ethoxyiminomethyl}phenyl]-2-methoxyiminoacetamide]
Preventive value (%) ([4]; 2.0 ppm): 64% | Preventive value (%) ([4]; 4.0 ppm): 96% | LC50 value (CD rats (female)): 1,784 mg/kg | mortality (CD rats (female); single oral dosage of 300 mg/kg): no mortality | cases died (CD rats (female); single oral dosage of 600 mg/kg): 1/5 | cases died (CD rats (female); single oral dosage of 1,200 mg/kg): 1/5 | cases died (CD rats (female); single oral dosage of 2,500 mg/kg): 4/5 | cases died (CD rats (female); single oral dosage of 5,000 mg/kg): 4/5 | Preventive value [5]: 32

From patent EP0949243A1, “OPTICALLY ACTIVE METHOXYIMINOACETAMIDE DERIVATIVES, PROCESS FOR THE PREPARATION OF THEM, INTERMEDIATES THEREFOR, AND PESTICIDES CONTAINING THEM AS THE ACTIVE INGREDIENT” (MITSUBISHI CHEMICAL CORPORATION, priority 1996, dated 1998)
